# Entries after “also recorded” stand apart in the source; their conditions may differ. Where a SMILES comes first, the peptide text is derived from it. [ ]: non-standard residue; d: D form. The star is where a group is joined. X1 = COc1cc2cc(c1Cl)N(C)C(=O)C[C@H](OC(=O)[C@H](C)N(C)C(=O)CCS*)[C@]1(C)O[C@H]1[C@H](C)[C@@H]1C[C@@](O)(NC(=O)O1)[C@H](OC)/C=C/C=C(\C)C2; βAla = NCCC(=O)O; Mpa = O=C(O)CCS
# Assays:
# [1] = Immunogenicity assay (plasma cytokines by ELISA); type: in vivo, BALB/c mice; conditions: 5 mg/kg i.v., 4 h after injection
# Protocol: Immunogenicity assay—Female BALB/c mice were treated with a single dose of Bdd or LPS (5 mg/kg) via tail-vein injection (n=3/group). Mice administered with PBS were used as a negative control. Blood samples were collected 4 h later via retro-orbital sinus puncture technique, and the concentration of the innate immune and inflammatory cytokines IL1β, IL2, IL6, IL10, TNF-α, and INF-γ in plasma was measured with commercial sandwich enzyme-linked immunosorbent assay kits. ELISA assays were performed according to the manufacturer's instructions (Invitrogen, Carlsbad, Calif.).
# [2] = test system: Renca/GFP-Luc tumors in kidney capsule; experiment: Evaluation of DM1-Bdd for kidney cancer treatment (syngeneic orthotopic model); type: in vivo, BALB/c mice
# Description: The animals were monitored for tumor growth inhibition and survival as described above. Additional mice were used for histopathological analysis (n=4/group).
# Slides were then counterstained with Hematoxylin.
# [3] = test system: panel of BC cell lines; experiment: Cell viability and cytotoxicity assay (CellTiter Glo, 72 h); type: cell-based
# Protocol: (§1) Cell viability and cytotoxicity assay—Cancer cells (3×10^3/well) were seeded on a flat bottom 96-well plate overnight. […] CellTiter Glo reagent (Promega, Madison, Wis.) was added in each well (50 μL). The luminescence generated was recorded using a microplate reader (Tecan US Inc., Morrisville, N.C.). The dose response curves were plotted, and the half maximal inhibitory concentrations (IC50 values) were calculated using Graph Pad Prism 6.0 software.
# [4] = test system: UMUC-3; experiment: as above; type: cell-based, human; conditions: UMUC-3, 72 h
# Protocol: as §1
# [5] = test system: Renca; experiment: as above; type: cell-based, murine
# Protocol: as §1
# [6] = Toxicity profile in healthy animals (hematology, serum biochemistry, necropsy); type: in vivo, BALB/c mice; conditions: for hematology (red blood cell, leukocyte, platelet counts, morphology) / histopathology of liver, spleen, heart, lungs, kidneys / serum liver enzymes (ALP, ALT, AST) / urea nitrogen/creatinine ratio: DM1, DM1-Bdd 0.75 mg/kg
# Description: At the end of a 3-week treatment, mice were euthanized. The organs/tissues were harvested, fixed in 10% neutral buffered formalin for 2 days. Bones were decalcified in a formic acid solution (Surgipath Decalcifier I; Leica Biosystems, Weltzar, Germany). The samples were then embedded in paraffin, sectioned (5 μm), and stained with H&E for examination by an ACVP board certified anatomic pathologist.
# Hematology and biochemistry—Blood samples were collected via cardiac puncture. A complete blood count, including red blood cell, white blood cell, reticulocyte and platelet counts, with an automated differential leukocyte count, was performed using an IDEXX Procyte DX hematology analyzer (iDEXX, Westbrook, Me.). Blood smears were prepared, stained with modified Wright's stain, examined in a blinded fashion by a board-certified veterinary clinical pathologist (T. S.), and imaged using a Nikon Eclipse TE2000-U fluorescent microscope equipped with a photometrics CoolSNAP HQ^2 camera (Nikon Corporation, Tokyo, Japan). The blood was also centrifuged (1,500×G) for 15 min to obtain the serum for biochemical analysis using a Beckman Coulter AU680 analyzer (Beckman Coulter, Brea, Calif.).
# [7] = Nephrotoxicity studies (urinary NGAL and KIM-1, kidney histology and IHC); type: in vivo, BALB/c mice; conditions: for induction of KIM-1 and/or NGAL: i.v., at 3 days
# Protocol: The level of the acute renal injury biomarkers, neutrophil gelatinase-associated lipocalin (NGAL) and kidney injury molecule-1 (KIM-1) in the urine samples, were measured using ELISA assays according to the manufacturer's instructions (R&D Systems, Minneapolis, Minn.). […] All the animals (n=3/group) were euthanized at the end of the treatment and the kidneys were collected and fixed in 10% neutral buffered formalin. The tissues were then processed, embedded in paraffin, sectioned, and stained with H&E. Immunohistochemistry (IHC) for kidney injury (NGAL and KIM-1) was also performed.
# [8] = test system: orthotopic human UMUC-3/GFP-Luc bladder tumors; experiment: Therapeutic efficacy of drug-Bdd conjugates for treating BC (orthotopic xenograft)
# Protocol: Therapeutic efficacy of drug-Bdd conjugates for treating BC—Animals were orthotopically implanted with tumors as previously described. Briefly, the urine of 7- to 9-week-old female NSG mice (Jackson Laboratory, Bar Harbor, Me.) was remove through a sterile 24 G pediatric venous catheter (Dublin, Ireland). A trypsin solution (0.125%, 80 μL) was then delivered into the bladder, Subsequently. UMUC-3/GFP-Luc cells (4×10^4 cells) in culture media (50 μL) were transferred into the bladders and allowed for seeding. Tumor progression was monitored by bioluminescence imaging. Luciferin (3 mg) in PBS (100 μL) was given to the animals (via intraperitoneal injection) 15 min prior to performing imaging. […] The therapeutic efficacy was evaluated based on tumor growth inhibition (bioluminescence imaging) and long-term survival.
# [9] = design: species or system BALB/c mice; conditions: mouse, in vivo, iv
# Protocol: Pharmacokinetic study—BALB/c mice (Jackson Laboratory, Bar Harbor, Me.) were administered with ^89Zr-peptide or free ^89Zr (20 μCi, 100 μL) via tail-vein injections (n=4/condition). Blood samples (20 μL) were collected at various time intervals, using retro-orbital sinus puncture technique. The radioactivities were measured on Wallac Wizard 2 gamma counter (Perkin-Elmer, Waltham, Mass.). The pharmacokinetic models and parameters of ^89Zr-peptides and free ^89Zr, including the serum half-life and the plasma clearance, were estimated by fitting the data for compartmental model selection using PKSolver 2.0 software.
# [10] = μPET/CT imaging and end-point biodistribution study of ^89Zr-peptides; type: in vivo, BALB/c mice
# Protocol: μPET/CT imaging and biodistribution study—BALB/c mice were intravenously injected with different ^89Zr-peptide analogues (20 μCi, 100 μL). μPET/CT imaging was performed in animals with and without urine collection prior to the first imaging (n=4/analogue/condition). Whole-body images were acquired 1, 4, and 24 h after injection, using Inveon μPET/CT scanner (Siemens Medical Solutions, Malvern, Pa.). μPET/CT maximum […] projections were processed using Amide v1.0.4 and Inveon Research Workplace software. The radioactivities at different region of interest (ROI) were determined. For end-point biodistribution studies, the mice were euthanized 0.17, 1, 2, 5, and 7 days after treatment with ^89Zr-peptides (n=3/peptide analogue/time point). The radioactivities of the harvested organs were measured using the Wallac Wizard 2 gamma counter. The results were corrected from radioactive decay, and were expressed as a percentage of the injected dose (% ID) or percentage of injected dose per gram of tissue (% ID/g).
# [11] = Fluorescence imaging of Cy-peptide analogues (whole body, urine, ex vivo organs); conditions: i.v. 0.5 nmol, images 1 and 4 h
# Protocol: Fluorescence imaging—Female SHO mice (Charles River Laboratories, Wilmington, Mass.) were administered with free Cyanine5.5 or Cy-peptide analogues (0.5 nmol of Cyanine5.5 content measured by UV absorbance at 680 nm) in a PBS (150 μL) via tail-vein injections (n=4/group). Real-time fluorescence imaging was performed using In vivo Xtreme imaging system (Bruker, Billerica, Mass.). Whole body fluorescence images were acquired 1 and 4 h post injection using the appropriate excitation (670 nm) and emission (750 nm) filters. The animals were then euthanized. The organs were excised to perform ex vivo fluorescence imaging. Imaging was also performed on urine samples (50 μL) collected from separate animals 1 h after i.v. injection of free dye or Cy-peptide analogues (n=4/treatment). Bruker MI software was used to process the fluorescence/bright light images and measure the fluorescence intensity in different ROIs. All the data were corrected to eliminate the organ or fluid auto-fluorescence.
# [12] = i.v. weekly for 3 weeks, CIS 10 mg/kg
# [13] = i.v. 0.75 mg/kg of drug content weekly for 3 weeks
molecule,measurement,setting,value
NCCC(=O)N[C@H](CC(=O)O)C(=O)N[C@H](CC(=O)O)C(=O)NCCC(=O)N[C@H](CC(=O)O)C(=O)N[C@H](CC(=O)O)C(=O)NCCC(=O)N[C@H](CC(=O)O)C(=O)N[C@H](CC(=O)O)C(=O)NCCC(=O)N[C@H](CC(=O)O)C(=O)N[C@H](CC(=O)O)C(N)=O [Bdd] (HELM PEPTIDE1{[bAla].[dD].[dD].[bAla].[dD].[dD].[bAla].[dD].[dD].[bAla].[dD].[dD].[am]}$$$$V2.0; N-terminus assumed),"inflammatory cytokine levels (IL-1β, IL-2, IL-6, IL-10, TNF-α, INF-γ) in plasma",[1],no increase
"COc1cc2cc(c1Cl)N(C)C(=O)C[C@H](OC(=O)[C@H](C)N(C)C(=O)CCS)[C@]1(C)O[C@H]1[C@H](C)[C@@H]1C[C@@](O)(NC(=O)O1)[C@H](OC)/C=C/C=C(\C)C2 [DM1, N2′-deacetyl-N2′-(3-mercapto-1-oxopropyl)-maytansine]",survival,"[2]; either i.v. or i.t., 0.75 mg/kg weekly",died
same,histological examination of kidneys (tumor),[2]; one week after completing the treatment course,large and accompanied with an infiltration of mononuclear cells
same,"potency relative to commonly used ITC drugs (MIT, DOX and CIS)",[3],100 fold
same,IC50 values,[4],nanomolar (nM) range
same,potency compared to other conventional chemotherapeutics,[4],"more potent than cisplatin (CIS), doxorubicin (DOX) and mitomycin (MIT), and as effective as gemcitabine (GEM)"
same,activity against Renca cell line,[5],effective
same,muscle injury (CK activity),"[6]; i.v. weekly for 3 weeks, DM1 0.75 mg/kg, CIS 10 mg/kg",induced muscle injury
same,"hematology (red blood cell, leukocyte, platelet counts, morphology)",[6]; [12],"reticulocytosis without apparent anemia; also recorded: inflammatory response characterized by increased proportions of neutrophils, monocytes, and platelets"
same,"histopathology of liver, spleen, heart, lungs, kidneys",[6]; [12],Increased splenic and hepatic EMH
same,"serum liver enzymes (ALP, ALT, AST)",[6]; [12],increases
same,urea nitrogen/creatinine ratio,[6]; [12],increases
same,induction of KIM-1 and/or NGAL,[7],continued induction
same,animal survival compared to i.t. MIT,[8]; [13],prolonged animal survival
same,tumor growth inhibition compared to i.t. MIT,[8]; [13],more effective in inhibiting tumor growth
same,overall survival after 100 days,[8]; i.v. 0.75 mg/kg weekly for 3 weeks,0%
COc1cc2cc(c1Cl)N(C)C(=O)C[C@H](OC(=O)[C@H](C)N(C)C(=O)CCSSCCC(=O)NCCC(=O)N[C@H](CC(=O)O)C(=O)N[C@H](CC(=O)O)C(=O)NCCC(=O)N[C@H](CC(=O)O)C(=O)N[C@H](CC(=O)O)C(=O)NCCC(=O)N[C@H](CC(=O)O)C(=O)N[C@H](CC(=O)O)C(=O)NCCC(=O)N[C@H](CC(=O)O)C(=O)N[C@H](CC(=O)O)C(N)=O)[C@]1(C)O[C@H]1[C@H](C)[C@@H]1C[C@@](O)(NC(=O)O1)[C@H](OC)/C=C/C=C(\C)C2 [DM1-Bdd] ([Mpa](X1)[βAla][dD][dD][βAla][dD][dD][βAla][dD][dD][βAla][dD][dD]-NH2),hepatotoxicity,[6]; [13],not hepatotoxic
same,"hematology (red blood cell, leukocyte, platelet counts, morphology)",[6]; [12],did not affect
same,"histopathology of liver, spleen, heart, lungs, kidneys",[6]; [12],no morphological evidence of injury
same,"serum liver enzymes (ALP, ALT, AST)",[6]; [12],no significant alteration
same,urea nitrogen/creatinine ratio,[6]; [12],normal
same,immunoreactivity of kidney sections for KIM-1 and NGAL compared to PBS,[7]; 3 days after i.v. administration,no elevation of the immunoreactivity
same,histologic examination of kidneys,"[7]; 3 days after i.v. drug administration, CIS 10 mg/kg, DM1-Bdd 0.75 mg/kg",did not reveal any abnormalities
same,time for urinary KIM-1 and NGAL to return to basal levels,[7]; single i.v. dose 0.75 mg/kg of drug content,≤ 3 days
same,urinary KIM-1 and NGAL levels,"[7]; single i.v. dose 0.75 mg/kg of drug content, 1 day after injection",slightly increased
"COc1cccc2c1C(=O)c1c(O)c3c(c(O)c1C2=O)C[C@@](O)(C(=O)CO)C[C@@H]3O[C@H]1C[C@H](N)[C@H](O)[C@H](C)O1 [DOX, Doxorubicin]",animal survival,[8]; 5 mg/kg of drug content weekly for 3 weeks,shorter life expectancy compared to the PBS control
same,drug-induced mortality,[8]; DOX 5 mg/kg weekly,died prior to receiving the final dose
"Nc1ccn([C@@H]2O[C@H](CO)[C@@H](O)C2(F)F)c(=O)n1 [GEM, gemcitabine]",induction of KIM-1 and/or NGAL,[7],continued induction
"CO[C@@]12[C@H](COC(N)=O)C3=C(C(=O)C(C)=C(N)C3=O)N1C[C@@H]1N[C@@H]12 [MIT, Mitomycin]",induction of KIM-1 and/or NGAL,[7],continued induction
"CC(=O)N(O)CCCCCNC(=O)CCC(=O)N(O)CCCCCNC(=O)CCC(=O)N(O)CCCCCNC(=S)Nc1ccc(NC(=S)NCCC(=O)N[C@H](CC(=O)O)C(=O)N[C@H](CC(=O)O)C(=O)NCCC(=O)N[C@H](CC(=O)O)C(=O)N[C@H](CC(=O)O)C(=O)NCCC(=O)N[C@H](CC(=O)O)C(=O)N[C@H](CC(=O)O)C(=O)NCCC(=O)N[C@H](CC(=O)O)C(=O)N[C@H](CC(=O)O)C(N)=O)cc1 [^89Zr-Bdd, metal not drawn] (HELM PEPTIDE1{[CC(=O)N(O)CCCCCNC(=O)CCC(=O)N(O)CCCCCNC(=O)CCC(=O)N(O)CCCCCNC(=S)Nc1ccc(NC(=S)[*:2])cc1].[bAla].[dD].[dD].[bAla].[dD].[dD].[bAla].[dD].[dD].[bAla].[dD].[dD].[am]}$$$$V2.0)",terminal half-life,[9]; BALB/c,31.8 min
same,plasma clearance,[9],rapid
same,time to excretion into the urine after i.v. administration,"[10]; i.v., confirmed by absence of radioactivity in emptied bladders",≤ 1 h
same,ID found in kidneys,"[10]; mouse, in vivo",15.1 % ID
same,ID found in kidneys after 7 days,"[10]; mouse, in vivo",2.1 % ID
same,peptide in major organs or blood circulation,"[10]; mouse, in vivo, iv",No peptide in major organs or blood circulation was detected
Cyanine5.5,elimination route / main organ uptake by fluorescence imaging,[11],mainly taken up by the liver

# Reference: US11571481B2, “Peptide-linked drug delivery system” (priority 2020, dated 2023)
